Source: ChEMBL document CHEMBL3091428, “Synthesis and initial biological evaluation of substituted 1-phenylamino-2-thio-4,5-dimethyl-1H-imidazole derivatives” (Bioorg Med Chem Lett, 2013)
≈ marks a conversion by molar mass, not a printed value.

Assays:
Assay type in all cases: functional
Pichia kudriavzevii = experiment: Antimicrobial activity against Candida krusei ATCC 6258 after 24 hrs by broth microdilution method; conditions: ATCC 6258, 24 h
Nakaseomyces glabratus = experiment: Antimicrobial activity against Candida glabrata ATCC 90030 after 24 hrs by broth microdilution method; conditions: ATCC 90030, 24 h
Listeria monocytogenes = experiment: Antimicrobial activity against Listeria monocytogenes ATCC 19115 after 24 hrs by broth microdilution method; conditions: ATCC 19115, 24 h
Candida albicans = experiment: Antimicrobial activity against Candida albicans ATCC 90028 after 24 hrs by broth microdilution method; conditions: ATCC 90028, 24 h
Staphylococcus aureus = experiment: Antimicrobial activity against Staphylococcus aureus ATCC 25923 after 24 hrs by broth microdilution method; conditions: ATCC 25923, 24 h
Enterococcus faecalis [1] = experiment: Antimicrobial activity against Enterococcus faecalis ATCC 51299 after 24 hrs by broth microdilution method; conditions: ATCC 51299, 24 h
Enterococcus faecalis [2] = experiment: Antimicrobial activity against Enterococcus faecalis ATCC 29212 after 24 hrs by broth microdilution method; conditions: ATCC 29212, 24 h
Pseudomonas aeruginosa = experiment: Antimicrobial activity against Pseudomonas aeruginosa ATCC 27853 after 24 hrs by broth microdilution method; conditions: ATCC 27853, 24 h
Klebsiella pneumoniae = experiment: Antimicrobial activity against Klebsiella pneumoniae ATCC 13883 after 24 hrs by broth microdilution method; conditions: ATCC 13883, 24 h
Escherichia coli [3] = experiment: Antimicrobial activity against Escherichia coli ATCC 25922 after 24 hrs by broth microdilution method; conditions: ATCC 25922, 24 h
Escherichia coli [4] = experiment: Antimicrobial activity against Escherichia coli ATCC 35218 after 24 hrs by broth microdilution method; conditions: ATCC 35218, 24 h

SMILES | MIC (Pichia kudriavzevii) | MIC (Nakaseomyces glabratus) | MIC (Listeria monocytogenes) | MIC (Candida albicans) | MIC (Staphylococcus aureus) | MIC (Enterococcus faecalis [1]) | MIC (Enterococcus faecalis [2]) | MIC (Pseudomonas aeruginosa) | MIC (Klebsiella pneumoniae) | MIC (Escherichia coli [3]) | MIC (Escherichia coli [4])
COc1ccc(Nn2c(SCC(=O)c3ccc(OC)c(OC)c3)nc(C)c2C)cc1 | 200 µg/mL (≈ 468 µM) | 400 µg/mL (≈ 936 µM) | 800 µg/mL (≈ 1870 µM) | 200 µg/mL (≈ 468 µM) | 800 µg/mL (≈ 1870 µM) | 1600 µg/mL (≈ 3740 µM) | 800 µg/mL (≈ 1870 µM) | 800 µg/mL (≈ 1870 µM) | 800 µg/mL (≈ 1870 µM) | 800 µg/mL (≈ 1870 µM) | 800 µg/mL (≈ 1870 µM)
O=C(N[C@H](CO)[C@H](O)c1ccc([N+](=O)[O-])cc1)C(Cl)Cl [CHLORAMPHENICOL] |  |  | 50 µg/mL (≈ 155 µM) |  | 50 µg/mL (≈ 155 µM) | 100 µg/mL (≈ 309 µM) | 12.5 µg/mL (≈ 38.7 µM) | 50 µg/mL (≈ 155 µM) | 50 µg/mL (≈ 155 µM) | 50 µg/mL (≈ 155 µM) | 25 µg/mL (≈ 77.4 µM)
Cc1nc(SCC(=O)c2ccc(Cl)cc2)n(Nc2ccc(Cl)cc2)c1C | 400 µg/mL (≈ 984 µM) | 800 µg/mL (≈ 1970 µM) | 800 µg/mL (≈ 1970 µM) | 800 µg/mL (≈ 1970 µM) | 800 µg/mL (≈ 1970 µM) | 800 µg/mL (≈ 1970 µM) | 800 µg/mL (≈ 1970 µM) | 400 µg/mL (≈ 984 µM) | 800 µg/mL (≈ 1970 µM) | 800 µg/mL (≈ 1970 µM) | 800 µg/mL (≈ 1970 µM)
Cc1nc(SCC(=O)c2ccc(F)cc2)n(Nc2ccccc2)c1C | 200 µg/mL (≈ 563 µM) | 400 µg/mL (≈ 1130 µM) | 400 µg/mL (≈ 1130 µM) | 400 µg/mL (≈ 1130 µM) | 800 µg/mL (≈ 2250 µM) | 400 µg/mL (≈ 1130 µM) | 400 µg/mL (≈ 1130 µM) | 400 µg/mL (≈ 1130 µM) | 400 µg/mL (≈ 1130 µM) | 800 µg/mL (≈ 2250 µM) | 400 µg/mL (≈ 1130 µM)
Cc1ccc(Nn2c(SCC(=O)c3ccc(F)c(F)c3)nc(C)c2C)cc1 | 100 µg/mL (≈ 258 µM) | 400 µg/mL (≈ 1030 µM) | 800 µg/mL (≈ 2060 µM) | 200 µg/mL (≈ 516 µM) | 800 µg/mL (≈ 2060 µM) | 200 µg/mL (≈ 516 µM) | 400 µg/mL (≈ 1030 µM) | 800 µg/mL (≈ 2060 µM) | 800 µg/mL (≈ 2060 µM) | 800 µg/mL (≈ 2060 µM) | 800 µg/mL (≈ 2060 µM)
Cc1nc(SCC(=O)c2ccccc2)n(Nc2ccc(Cl)cc2)c1C | 800 µg/mL (≈ 2150 µM) | 800 µg/mL (≈ 2150 µM) | 400 µg/mL (≈ 1080 µM) | 800 µg/mL (≈ 2150 µM) | 800 µg/mL (≈ 2150 µM) | 800 µg/mL (≈ 2150 µM) | 200 µg/mL (≈ 538 µM) | 400 µg/mL (≈ 1080 µM) | 800 µg/mL (≈ 2150 µM) | 800 µg/mL (≈ 2150 µM) | 800 µg/mL (≈ 2150 µM)
COc1ccc(C(=O)CSc2nc(C)c(C)n2Nc2ccc(Cl)cc2)cc1 | 200 µg/mL (≈ 498 µM) | 800 µg/mL (≈ 1990 µM) | 1600 µg/mL (≈ 3980 µM) | 800 µg/mL (≈ 1990 µM) | 400 µg/mL (≈ 995 µM) | 400 µg/mL (≈ 995 µM) | 200 µg/mL (≈ 498 µM) | 800 µg/mL (≈ 1990 µM) | 400 µg/mL (≈ 995 µM) | 800 µg/mL (≈ 1990 µM) | 800 µg/mL (≈ 1990 µM)
COc1ccc(Nn2c(SCC(=O)c3cccc(F)c3)nc(C)c2C)cc1 | 400 µg/mL (≈ 1040 µM) | 400 µg/mL (≈ 1040 µM) | 400 µg/mL (≈ 1040 µM) | 400 µg/mL (≈ 1040 µM) | 400 µg/mL (≈ 1040 µM) | 800 µg/mL (≈ 2080 µM) | 400 µg/mL (≈ 1040 µM) | 400 µg/mL (≈ 1040 µM) | 800 µg/mL (≈ 2080 µM) | 800 µg/mL (≈ 2080 µM) | 800 µg/mL (≈ 2080 µM)
COc1ccc(Nn2c(SCC(=O)c3cccc(OC)c3)nc(C)c2C)cc1 | 800 µg/mL (≈ 2010 µM) | 800 µg/mL (≈ 2010 µM) | 800 µg/mL (≈ 2010 µM) | 800 µg/mL (≈ 2010 µM) | 800 µg/mL (≈ 2010 µM) | 200 µg/mL (≈ 503 µM) | 800 µg/mL (≈ 2010 µM) | 800 µg/mL (≈ 2010 µM) | 800 µg/mL (≈ 2010 µM) | 800 µg/mL (≈ 2010 µM) | 800 µg/mL (≈ 2010 µM)
COc1cccc(C(=O)CSc2nc(C)c(C)n2Nc2ccccc2)c1 | 400 µg/mL (≈ 1090 µM) | 400 µg/mL (≈ 1090 µM) | 800 µg/mL (≈ 2180 µM) | 400 µg/mL (≈ 1090 µM) | 800 µg/mL (≈ 2180 µM) | 800 µg/mL (≈ 2180 µM) | 800 µg/mL (≈ 2180 µM) | 400 µg/mL (≈ 1090 µM) | 400 µg/mL (≈ 1090 µM) | 400 µg/mL (≈ 1090 µM) | 800 µg/mL (≈ 2180 µM)
COc1ccc(Nn2c(SCC(=O)c3ccc(Cl)cc3)nc(C)c2C)cc1 | 400 µg/mL (≈ 995 µM) | 400 µg/mL (≈ 995 µM) | 400 µg/mL (≈ 995 µM) | 400 µg/mL (≈ 995 µM) | 400 µg/mL (≈ 995 µM) | 800 µg/mL (≈ 1990 µM) | 400 µg/mL (≈ 995 µM) | 800 µg/mL (≈ 1990 µM) | 400 µg/mL (≈ 995 µM) | 400 µg/mL (≈ 995 µM) | 800 µg/mL (≈ 1990 µM)
COc1ccc(Nn2c(SCC(=O)c3ccc(F)c(F)c3)nc(C)c2C)cc1 | 400 µg/mL (≈ 991 µM) | 800 µg/mL (≈ 1980 µM) | 800 µg/mL (≈ 1980 µM) | 400 µg/mL (≈ 991 µM) | 800 µg/mL (≈ 1980 µM) | 800 µg/mL (≈ 1980 µM) | 1600 µg/mL (≈ 3970 µM) | 800 µg/mL (≈ 1980 µM) | 800 µg/mL (≈ 1980 µM) | 800 µg/mL (≈ 1980 µM) | 800 µg/mL (≈ 1980 µM)
Cc1nc(SCC(=O)c2ccc(Cl)c(Cl)c2)n(Nc2ccccc2)c1C | 200 µg/mL (≈ 492 µM) | 200 µg/mL (≈ 492 µM) | 400 µg/mL (≈ 984 µM) | 400 µg/mL (≈ 984 µM) | 800 µg/mL (≈ 1970 µM) | 800 µg/mL (≈ 1970 µM) | 200 µg/mL (≈ 492 µM) | 400 µg/mL (≈ 984 µM) | 800 µg/mL (≈ 1970 µM) | 800 µg/mL (≈ 1970 µM) | 800 µg/mL (≈ 1970 µM)
COc1ccc(Nn2c(SCC(=O)c3ccccc3)nc(C)c2C)cc1 | 800 µg/mL (≈ 2180 µM) | 800 µg/mL (≈ 2180 µM) | 800 µg/mL (≈ 2180 µM) | 800 µg/mL (≈ 2180 µM) | 800 µg/mL (≈ 2180 µM) | 100 µg/mL (≈ 272 µM) | 800 µg/mL (≈ 2180 µM) | 800 µg/mL (≈ 2180 µM) | 800 µg/mL (≈ 2180 µM) | 800 µg/mL (≈ 2180 µM) | 800 µg/mL (≈ 2180 µM)
